According to article PMC10860144, “Exploring the Dispersion and Electrostatic Components in Arene–Arene Interactions between Ligands and G4 DNA to Develop G4-Ligands” (Journal of Medicinal Chemistry, 2024):
In brackets after ≈: the same amount, converted by molar mass.

Legend:
[1] = Solubility at pH 7.4; assay type: physicochemical
Protocol: (§1) Physicochemical properties
(§2) The Physicochemical profiling (LogD, Solubility, Caco-2 cell permeability) was performed as previously
(§3) described.8 Cell viability was performed as described below.
(§4) Table S2. Pharmacokinetic Properties
(§5) Compound Structure logD, Solubility, Rat hepsa Human mics b

[2] = test system: c-MYC Pu22 G4 DNA in the presence of competitor dsDNA (ds26); test: FRET melting competition assay with dsDNA (ds26); assay type: binding, human; details: 5 at 2 μM, 27 at 5 μM; 0–100 equiv ds26
Protocol: We next challenged the compounds’ G4 selectivity with a FRET melting competition assay using 5 (2 μM) and 27 (5 μM) with c-MYC Pu22 G4 DNA and increasing amounts of dsDNA (Figure 6D and Table S1). […] In addition, we investigated if we could detect any binding of the compounds to dsDNA using MST with a fluorescently labeled dsDNA (Table S1).
The FRET occurs between two dyes (5′-FAM as donor and 3′-TAMRA as acceptor) linked at both extremities of a DNA oligonucleotide. When the oligonucleotides are folded into G4 structures, the donor and acceptor are in proximity, which results in an energy transfer from the donor to the acceptor. This process can be detected by a reduction in the fluorescence emission of the donor. Fluorescence emission of the donor is recovered when the temperature increment triggers the thermal denaturation of the G4 structure. The experiments were performed in a Bio-Rad CFX96 real-time PCR device at temperatures from 10 to 95 °C at 1.5 °C/m heating rate using a 492 nm excitation wavelength and a 516 nm detection wavelength in 96-well plates. Each condition was tested in duplicate, and analysis of the data was carried out by using Excel and Origin 8 software. […] The stabilization (ΔTm) is calculated from comparison of Tm of the fluorescently labeled oligonucleotide in the presence or absence of the ligand.

[3] = target: G4 DNA (Pu22); test: Isothermal titration calorimetry (ITC), reverse titration; parameters: species or system human; details: G4 DNA titrated to ligand; 19 °C; one-site binding model
Protocol: Unfortunately, this was only possible using reverse titration, adding G4 DNA to the ligand, and a direct comparison to the MST binding affinities, which were performed by titrating the ligand to the G4, can thus not be performed. […] The reason why 5 is more efficient in stabilizing G4 DNA could instead be linked to the entropic penalty (−TΔS), which is less for 5 (1.85 kcal/mol) compared to 27 (3.2 kcal/mol).
ITC experiments were performed using a MicroCal ITC200 instrument (GE Healthcare). A buffer containing 10 mM potassium phosphate and 100 mM KCl of pH 7.4 was prepared. The sample cell was filled with a 20 μM ligand, and the syringe with 120 μM prefolded G4 DNA. […] The data was analyzed in MICROCAL PEAQ-ITC analysis software using a one-site binding mode. […]
The following settings were applied: temperature 19 °C, reference power 7 μcal/sec, initial delay 300 sec, stirring speed 1000 RPM, spacing 120 sec, filter 5 sec, first injection 0.5 μL for 1 sec then 2 μL for 4 sec for the subsequent injections, and high-feedback mode. The data was analyzed in MICROCAL PEAQ-ITC analysis software using a one-site binding mode.
Figure S20. Binding curves with their associated ΔG-, ΔH-, and -TΔS-values for compounds 5 and 27 for G4 DNA (Pu22) measured by ITC with a one-site binding model. […]
structure. […] Excitation sculpting was used in the 1D 1H experiments, and 256 scans were recorded. […]

[4] = Caco-2 intrinsic permeability; assay type: in vitro ADME; details: human, read-out: Cell-permeability (Papp)
Source text: We next performed further profiling of the most promising compound 5 and its matched pair neutral analogue 27, by measuring intrinsic permeability in a Caco-2 assay (Table S3). […] This was further confirmed using Immortalized Human Total Liver Cell Population (IHTLCP) and HeLa cells (Figures S22 and S23). […] This observed cytotoxicity of 5 can be linked to its potent G4 binding and stabilization, as it can potentially act as a pan-G4 stabilizer and affect various G4-regulated cellular processes, such as telomere maintenance, gene transcription, and DNA replication.
as §1, §2, §3, §4, §5

Row | solubility [1] [µM] | Kd [3] [µM] | Papp [4] [×10⁻⁶ cm/s] | SMILES | change in compound-induced thermal stability of c-MYC Pu22 G4 DNA with increasing dsDNA [2]
1 | > 1000 |  |  | Cc1cc(NCCCN(C)C)nc(Nc2ncc3ccccc3n2)n1 [Compound 2, N4-(3-(Dimethylamino)propyl)-6-methyl-N2-(quinazolin-2-yl)pyrimidine-2,4-diamine] | 
2 | 962 (≈ 365 µg/mL) | 0.88 | < 0.13 | Cc1cc(C)c2nc(Nc3nc(C)cc(NCCCN(C)C)n3)nc(C)c2c1 [Compound 5, N4-(3-(Dimethylamino)propyl)-6-methyl-N2-(4,6,8-trimethylquinazolin-2-yl)pyrimidine-2,4-diamine] | No significant change
3 | 264 (≈ 77.5 µg/mL) | 1.04 | 70 | Cc1cc(C)c2nc(Nc3nc(C)cc(C)n3)nc(C)c2c1 [Compound 27, N-(4,6-Dimethylpyrimidin-2-yl)-4,6,8-trimethylquinazolin-2-amine] | No significant change
